According to US20190263799A1, “1H-IMIDAZO[4,5-B]PYRIDINYL AND 2-OXO-2,3-DIHYDRO-1H-IMIDAZO[4,5-B]PYRIDINYL HETEROCYCLIC BET BROMODOMAIN INHIBITORS” (ZENITH EPIGENETICS LTD., priority 2015, published 2019):
Where a name gives a salt, the structure may show the parent alone. Read-outs that look alike come from different tables or passages of the source.

Experiments:
BRD4(1) = biological target: T1, BRD4(1) (Homo sapiens, UniProt O60885); experiment: Inhibition of tetra-acetylated histone H4 binding to individual BET bromodomains (AlphaScreen); conditions: His-tagged BRD4(1) 20 nM, biotinylated tetra-acetylated histone H4 peptide, 30 min incubation; read-out: FRET activity BRD4(1)
T1 construct: N-terminally His-tagged bromodomains (BRD4(1) at 20 nM and BRD4(2) at 100 nM); made in house; host or cells: E. coli BL21(DE3)
Experimental: Proteins were cloned and overexpressed with a N-terminal 6×His tag, then purified by nickel affinity followed by size exclusion chromatography. Briefly, E. coli BL21(DE3) cells were transformed with a recombinant expression vector encoding N-terminally Nickel affinity tagged bromodomains from Brd2, Brd3, Brd4. Cell cultures were incubated at 37° C. with shaking to the appropriate density and induced overnight with IPTG. The supernatant of lysed cells was loaded onto Ni-IDA column for purification. Eluted protein was pooled, concentrated and further purified by size exclusion chromatography. Fractions representing monomeric protein were pooled, concentrated, aliquoted, and frozen at −80° C. for use in subsequent experiments.
Binding of tetra-acetylated histone H4 peptide (Millipore) and BET bromodomains was confirmed by Amplified Luminescent Proximity Homogenous Assay (AlphaScreen). N-terminally His-tagged bromodomains (BRD4(1) at 20 nM and BRD4(2) at 100 nM) and biotinylated tetra-acetylated histone H4 (10-25 nM) were incubated in the presence of nickel chelate acceptor beads and streptavidin donor beads (PerkinAlmer, 6760000K) added to a final concentration of 2 μg/mL under green light in a white 96 well microtiter plate (Greiner). For inhibition assays, serially diluted compounds were added to the reaction mixtures in a 0.1% final concentrations of DMSO. Final buffer concentrations were 50 mM HEPES, 100 mM NaCl and 0.1% BSA buffer, pH 7.4 and optimized to 30 min incubation time. Assay plates were read at 570 nm on a Synergy H4 Plate Reader (Biotek). IC50 values were determined from a dose response curve.

cMYC = experiment: Inhibition of cMYC expression in cancer cell lines (MV4-11, real-time PCR); assay type: cell-based; conditions: Homo sapiens, read-out: Myc activity
Experimental: MV4-11 cells (CRL-9591) were plated at a density of 2.5×10^4 cells per well in 96 well U-bottom plates and treated with increasing concentrations of test compound or DMSO (0.1%) in IMDM media containing 10% FBS and penicillin/streptomycin, and incubated for 3 h at 37° C. Triplicate wells were used for each concentration. Cells were pelleted by centrifugation and harvested using the mRNA Catcher PLUS kit according to manufacturer's instructions. The eluted mRNA isolated was then used in a one-step quantitative real-time PCR reaction, using components of the RNA UltraSense™ One-Step Kit (Life Technologies) together with Applied Biosystems TaqMan® primer-probes for cMYC and Cyclophilin. Real-time PCR plates were run on a ViiA™7 real time PCR machine (Applied Biosystems), data were analyzed, normalizing the Ct values for cMYC to an internal control, prior to determining the fold expression of each sample, relative to the control.

MV4-11 cells = experiment: Inhibition of cell proliferation in cancer cell lines (MV4-11, CellTiter Aqueous One); assay type: cell-based; conditions: Homo sapiens, read-out: Proliferation activity
Experimental: MV4-11 cells (CRL-9591) were plated at a density of 5×10^4 cells per well in 96 well flat bottom plates and treated with increasing concentrations of test compound or DMSO (0.1%) in IMDM media containing 10% FBS and penicillin/streptomycin. Triplicate wells were used for each concentration and a well containing only media was used as a control. Plates were incubated at 37° C., 5% CO2 for 72 h before adding 20 μL of the CellTiter Aqueous One Solution (Promega) to each well and incubating at 37° C., 5% CO2 for an additional 3-4 h. The absorbance was read at 490 nm in a spectrophotometer and the percentage of cell titer relative to DMSO-treated cells was calculated after correcting for background by subtracting the blank well's signal. IC50 values were calculated using the GraphPad Prism software.

[1] = MV4-11 cells, 3 h incubation, cMYC mRNA

Row | IC50 (BRD4(1)) | IC50 (cMYC; [1]) | IC50 (MV4-11 cells; MV4-11 cells, 72 h incubation) | Compound | IC50 (cMYC; MV4-11, 3 h) | IC50 (MV4-11 cells; MV4-11, 72 h)
1 | ≤ 0.3 µM | 0.3 to 3 µM | 0.3 to 3 µM | C=CC(=O)N(C)c1cnc2nc(NC)n(Cc3ccccc3)c2c1 [Example 21, N-(1-Benzyl-2-(methylamino)-1H-imidazo[4,5-b]pyridin-6-yl)-N-methylacrylamide] |  | 
2 | ≤ 0.3 µM | 0.3 to 3 µM | 0.3 to 3 µM | C=CC(=O)N(C)c1cnc2nc(N3CC=CC3)n(Cc3ccccc3)c2c1 [Example 22, N-(1-Benzyl-2-(2,5-dihydro-1H-pyrrol-1-yl)-1H-imidazo[4,5-b]pyridin-6-yl)-N-methylacrylamide hydrochloride] |  | 
3 | 0.3 to 3 µM | 0.3 to 3 µM | 3 to 30 µM | C=CC(=O)N(C)c1cnc2nc(N3CCCCC3)n(Cc3ccccc3)c2c1 [Example 23, N-(1-Benzyl-2-(piperidin-1-yl)-1H-imidazo[4,5-b]pyridin-6-yl)-N methylacrylamide] |  | 
4 | ≤ 0.3 µM | < 0.3 µM | 0.3 to 3 µM | C=CC(=O)N(C)c1cnc2nc(N3CC[C@H](CO)C3)n(Cc3ccccc3)c2c1 [Example 25, (S)—N-(1-Benzyl-2-(3-(hydroxymethyl)pyrrolidin-1-yl)-1H-imidazo[4,5-b]pyridin-6-yl)-N-methylacrylamide] |  | 
5 | ≤ 0.3 µM | 0.3 to 3 µM | 3 to 30 µM | C=CC(=O)N(C)c1cnc2nc(N3CC(CO)C3)n(Cc3ccccc3)c2c1 [Example 26, N-(1-Benzyl-2-(3-(hydroxymethyl)azetidin-1-yl)-1H-imidazo[4,5-b]pyridin-6-yl)-N-methylacrylamide] |  | 
6 | 0.3 to 3 µM | 3 to 30 µM | 3 to 30 µM | C=CC(=O)N(C)c1cnc2nc(N3C[C@H]4CN(C)C[C@H]4C3)n(Cc3ccccc3)c2c1 [Example 27, N-(1-Benzyl-2-((3aR,6aS)-5-methylhexahydropyrrolo[3,4-c]pyrrol-2(1H)-yl)-1H-imidazo[4,5-b]pyridin-6-yl)-N-methylacrylamide] |  | 
7 | ≤ 0.3 µM | 0.3 to 3 µM | 0.3 to 3 µM | CCC(=O)N(C)c1cnc2nc(N3CCCC3)n(Cc3ccccc3)c2c1 [Example 28, N-(1-Benzyl-2-(pyrrolidin-1-yl)-1H-imidazo[4,5-b]pyridin-6-yl)-N-methylpropionamide] |  | 
8 | ≤ 0.3 µM | 0.3 to 3 µM | 0.3 to 3 µM | CN(C(=O)C1CC1)c1cnc2nc(N3CCCC3)n(Cc3ccccc3)c2c1 [Example 29, N-(1-Benzyl-2-(pyrrolidin-1-yl)-1H-imidazo[4,5-b]pyridin-6-yl)-N-methylcyclopropanecarboxamide] |  | 
9 | 0.3 to 3 µM | 0.3 to 3 µM | 3 to 30 µM | CNC(=O)N(C)c1cnc2nc(N3CCCC3)n(Cc3ccccc3)c2c1 [Example 31, 1-(1-Benzyl-2-(pyrrolidin-1-yl)-1H-imidazo[4,5-b]pyridin-6-yl)-1,3-dimethylurea] |  | 
10 | 0.3 to 3 µM | 3 to 30 µM | 3 to 30 µM | CN(C(=O)CO)c1cnc2nc(N3CCCC3)n(Cc3ccccc3)c2c1 [Example 32, N-(1-Benzyl-2-(pyrrolidin-1-yl)-1H-imidazo[4,5-b]pyridin-6-yl)-2-hydroxy-N-methylacetamide] |  | 
11 | 0.3 to 3 µM | 0.3 to 3 µM | 3 to 30 µM | CC(C)C(=O)N(C)c1cnc2nc(N3CCCC3)n(Cc3ccccc3)c2c1 [Example 33, N-(1-Benzyl-2-(pyrrolidin-1-yl)-1H-imidazo[4,5-b]pyridin-6-yl)-N-methylisobutyramide] |  | 
12 | ≤ 0.3 µM | 0.3 to 3 µM | 0.3 to 3 µM | C[C@H](O)C(=O)N(C)c1cnc2nc(N3CCCC3)n(Cc3ccccc3)c2c1 [Example 34, (S)—N-(1-Benzyl-2-(pyrrolidin-1-yl)-1H-imidazo[4,5-b]pyridin-6-yl)-2-hydroxy-N-methylpropanamide] |  | 
13 | ≤ 0.3 µM | 0.3 to 3 µM | 0.3 to 3 µM | C=CC(=O)N(C)c1cnc2nc(N3CC[C@H](N(C)C)C3)n(Cc3ccccc3)c2c1 [Example 38, (S)—N-(1-Benzyl-2-(3-(dimethylamino)pyrrolidin-1-yl)-1H-imidazo[4,5-b]pyridin-6-yl)-N-methylacrylamide] |  | 
14 | ≤ 0.3 µM | 0.3 to 3 µM | 0.3 to 3 µM | C=CC(=O)N(C)c1cnc2nc(N3CC[C@@H](N(C)C)C3)n(Cc3ccccc3)c2c1 [Example 39, (R)—N-(1-Benzyl-2-(3-(dimethylamino)pyrrolidin-1-yl)-1H-imidazo[4,5-b]pyridin-6-yl)-N-methylacrylamide] |  | 
15 | ≤ 0.3 µM | 3 to 30 µM | 3 to 30 µM | C=CC(=O)N(C)c1cnc2nc(N3CC[C@H](NC(C)=O)C3)n(Cc3ccccc3)c2c1 [Example 43, (S)—N-(2-(3-Acetamidopyrrolidin-1-yl)-1-benzyl-1H-imidazo[4,5-b]pyridin-6-yl)-N-methylacrylamide] |  | 

Row | Compound | IC50 (BRD4(1)) | IC50 (cMYC; [1]) | IC50 (MV4-11 cells; MV4-11 cells, 72 h incubation) | IC50 (cMYC; MV4-11, 3 h) | IC50 (MV4-11 cells; MV4-11, 72 h)
16 | C=CC(=O)N(C)c1cnc2nc(N3C4CCC3CC(O)C4)n(Cc3ccccc3)c2c1 (stereo not drawn) [Example 24, N-(1-Benzyl-2-(3-hydroxy-8-azabicyclo[3.2.1]octan-8-yl)-1H-imidazo[4,5-b]pyridin-6-yl)-N-methylacrylamide] | ≤ 0.3 µM |  |  | 0.3 to 3 µM | 3 to 30 µM
17 | COC(=O)N(C)c1cnc2nc(N3CCCC3)n(Cc3ccccc3)c2c1 [Example 30, Methyl (1-benzyl-2-(pyrrolidin-1-yl)-1H-imidazo[4,5-b]pyridin-6-yl)(methyl) carbamate] | ≤ 0.3 µM |  |  | 0.3 to 3 µM | 0.3 to 3 µM
18 | CN(C)C(=O)N(C)c1cnc2nc(N3CCCC3)n(Cc3ccccc3)c2c1 [Example 35, 1-(1-Benzyl-2-(pyrrolidin-1-yl)-1H-imidazo[4,5-b]pyridin-6-yl)-1,3,3-trimethylurea] | 0.3 to 3 µM |  |  | 3 to 30 µM | 3 to 30 µM
19 | CCOC(=O)N(C)c1cnc2nc(N3CCCC3)n(Cc3ccccc3)c2c1 [Example 36, Ethyl (1-benzyl-2-(pyrrolidin-1-yl)-1H-imidazo[4,5-b]pyridin-6-yl)(methyl)carbamate] | ≤ 0.3 µM |  |  | 0.3 to 3 µM | 0.3 to 3 µM
20 | CC(C)OC(=O)N(C)c1cnc2nc(N3CCCC3)n(Cc3ccccc3)c2c1 [Example 37, Isopropyl (1-benzyl-2-(pyrrolidin-1-yl)-1H-imidazo[4,5-b]pyridin-6-yl)(methyl)carbamate] | 0.3 to 3 µM |  |  | 0.3 to 3 µM | 3 to 30 µM
21 | C=CC(=O)N(C)c1cnc2nc(NC3CCN(C)CC3)n(Cc3ccccc3)c2c1 [Example 40, N-(1-Benzyl-2-((1-methylpiperidin-4-yl)amino)-1H-imidazo[4,5-b]pyridin-6-yl)-N-methylacrylamide] | ≤ 0.3 µM |  |  | 3 to 30 µM | 3 to 30 µM
22 | C=CC(=O)N(C)c1cnc2nc(N3CC[C@@H](O)C3)n(Cc3ccccc3)c2c1 [Example 41, (R)—N-(1-Benzyl-2-(3-hydroxypyrrolidin-1-yl)-1H-imidazo[4,5-b]pyridin-6-yl)-N-methylacrylamide] | ≤ 0.3 µM |  |  | 3 to 30 µM | 3 to 30 µM
23 | C=CC(=O)N(C)c1cnc2nc(N3CC(O)C3)n(Cc3ccccc3)c2c1 [Example 42, N-(1-Benzyl-2-(3-hydroxyazetidin-1-yl)-1H-imidazo[4,5-b]pyridin-6-yl)-N-methylacrylamide] | ≤ 0.3 µM |  |  | 3 to 30 µM | 3 to 30 µM
